Values after ≈ are worked out from the molar mass of the structure shown.

One data set deals with Mammary tumor cell MCF-7. Briefly: Antitumor effect in vitro, proliferation inhibition (methylene blue staining, absorption at 660 nm). The class given is cell-based. Particulars: MCF-7, 2000 cells, incubated 3 days with compound; for IC50: Homo sapiens, MCF7, 72 h, read-out: IC50 (50% cell proliferation inhibitory concentration), MCF-7. Here is the method: (§1) Antitumor Effect in vitro Using Mammary Tumor Cell MCF-7 and MDA-MB-453
(§2) Each MCF-7, 2000 cells, and MDA-MB-453, 4000 cells, was inoculated using 10% serum added RPMI 1640 medium (Asahi Technoclass Inc.) into a 96 well plate. After incubating these cells at 37° C., under atmosphere of 5% CO2/95% air for 24 hours, each of the compounds of Examples 1, 2, 6, 9-13, 20, 24, 26, 27, 65, 66, 70, 71, 72 and 73 was added and incubated for further 3 days. Cells were stained with a 0.05% methylene blue solution and measured using a microplate reader (Benchmark Plus, Bio-Rad Laboratories) by absorption at 660 nm. Proliferation inhibition rate was calculated by the following equation, and 50% cell proliferation inhibitory concentrations of the compounds of Examples 1, 2, 6, 9-13, 20, 24, 26, 27, 65, 66, 70, 71, 72 and 73 were shown in Table 2. Proliferation inhibition rate=(1−absorbance with drug addition÷absorbance in control)×100

Data set [1] relates to Mammary tumor cell MDA-MB-453. The description is as above. The following applies: MDA-MB-453, 4000 cells, incubated 3 days with compound; for IC50: Homo sapiens, 72 h, read-out: IC50 (50% cell proliferation inhibitory concentration), MDA-MB-453. The class given is cell-based. Here is the method:
as §1, §2

In data set [2] the test system is Mammary tumor cells ZR-75-1. The experiment in a line: Antitumor effect in vivo, subcutaneous tumor in nude mice. Particulars: day 15 after initiating administration; oral 500 mg/kg once a day for 14 days; ZR-75-1 in female nude mice. The procedure: Antitumor Effect in vivo Using Mammary Tumor Cell ZR-75-1
Mammary tumor cells ZR-75-1 were inoculated in dorsal subcutaneous region of female nude mice. The compound of example 66 and example 53 was administered orally at dose level of 500 mg/kg, once a day, for 14 days consecutively from the point of initiating logarithmic growth of tumor cells. Conjugate axis and transverse axis of tumor were measured in the time dependent manner, and tumor volume was calculated by the following equation. Relative tumor volume, wherein tumor volume at the time of initiating administration was set as 1, was calculated. Effectiveness was judged by value (T/C) wherein tumor volume in the treated group is divided by tumor volume in the control group. tumor volume=conjugate axis×conjugate axis×transverse axis/2

For data set [3], the system named is mammary tumor cells, T-47D. The experiment in a line: Antitumor effect in vitro, proliferation inhibition, same condition as Test Example 1. The class given is cell-based. Particulars: Homo sapiens, T47D, 4000 cells. Here is the method:
as §2
Further, a test was conducted by using 4000 mammary tumor cells, T-47D, by adding a compound of example 65 or 66 under the same condition hereinabove.

Take `O=C1CC(c2ccccc2)Cc2nnc(-c3cccc(C(F)(F)F)c3)cc21` (stereo not drawn) [Example 1, 7-phenyl-3-(3-trifluoro-methylphenyl)-7,8-dihydro-6H-cinnolin-5-one]: the “IC50 (50% cell proliferation inhibitory concentration), MCF-7” value in the data set with Mammary tumor cell MCF-7 was 0.0388 µg/mL (≈ 0.105 µM). For the same molecule, in data set [1], the “IC50 (50% cell proliferation inhibitory concentration), MDA-MB-453” value was determined as 0.0395 µg/mL (≈ 0.107 µM).
The matching figures for “7-benzyl-3-(3-trifluoromethylphenyl)-7,8-dihydro-6H-pyrido[3,4-c]-pyridazin-3-one [Example 26]”: 0.3610 µg/mL and 8.9300 µg/mL.
Take `CC1CC(=O)c2cc(-c3cccc(F)c3)nnc2C1` (stereo not drawn) [Example 24, 3-(3-fluorophenyl)-7-methyl-7,8-dihydro-6H-cinnolin-5-one]: the IC50 in the data set with Mammary tumor cell MCF-7 is 3.57 µg/mL (≈ 13.9 µM); in data set [1], 4.95 µg/mL (≈ 19.3 µM).
In turn, `CC(C)[C@H](N)C(=O)O[C@@H]1C[C@@H](C)Cc2nnc(-c3cccc(C(F)(F)F)c3)cc21.Cl.Cl` showed a melting point of 181 to 185 °C.
For the molecule `CCOC(=O)C1CC(=O)c2cc(-c3cccc(C(F)(F)F)c3)nnc2C1` (stereo not drawn) [Example 2, ethyl 5-oxo-3-(3-trifluoro-methylphenyl)-7,8-dihydro-6H-cinnoline-7-carboxylate], the “IC50 (50% cell proliferation inhibitory concentration), MCF-7” value in the data set with Mammary tumor cell MCF-7 was 1.9600 µg/mL (≈ 5.38 µM). Also, in data set [1], the “IC50 (50% cell proliferation inhibitory concentration), MDA-MB-453” value came to 1.5700 µg/mL (≈ 4.31 µM).
Consider `COc1cc(C)cc2nnc(-c3cccc(C(F)(F)F)c3)cc12` [Example 71, 5-methoxy-7-methyl-3-(3-trifluoromethylphenyl)cinnoline], for which the IC50 in the data set on Mammary tumor cell MCF-7 came to 0.158 µg/mL (≈ 0.496 µM); in data set [1] it was 3.36 µg/mL (≈ 10.6 µM).
For `CC(=O)OC1CC(C)Cc2nnc(-c3cccc(C(F)(F)F)c3)cc21` (stereo not drawn) [Example 11, 5-acetyloxy-7-methyl-3-(3-trifluoromethylphenyl)-5,6,7,8-tetrahydrocinnoline], the IC50 in the data set on Mammary tumor cell MCF-7 was found to be 0.0455 µg/mL (≈ 0.13 µM); in data set [1], 0.848 µg/mL (≈ 2.42 µM).
For the molecule `CC1Cc2nnc(-c3cccc(C(F)(F)F)c3)cc2C(O)C1` (stereo not drawn) [Example 10, syn-(+)-7-methyl-3-(3-trifluoromethylphenyl)-5,6,7,8-tetrahydrocinnolin-5-ol], the “IC50 (50% cell proliferation inhibitory concentration), MCF-7” value in the data set on Mammary tumor cell MCF-7 was determined as 0.0982 µg/mL (≈ 0.319 µM). For the same molecule, the “IC50 (50% cell proliferation inhibitory concentration), MDA-MB-453” value in data set [1] came to 1.5400 µg/mL (≈ 5 µM).
The matching figures for `O=C1CCCc2c1cc(-c1cccc(C(F)(F)F)c1)n[n+]2[O-]` [Example 13, 5-oxo-1-oxy-3-(3-trifluoromethylphenyl)-7,8-dihydro-6H-cinnoline]: 0.0671 µg/mL (≈ 0.218 µM) and 0.9510 µg/mL (≈ 3.09 µM).
As to `CC1Cc2nnc(-c3cccc(C(F)(F)F)c3)cc2C(O)C1` (stereo not drawn) [Example 9, syn-(−)-7-methyl-3-(3-trifluoromethylphenyl)-5,6,7,8-tetrahydrocinnolin-5-ol], the “IC50 (50% cell proliferation inhibitory concentration), MCF-7” value in the data set on Mammary tumor cell MCF-7 was determined as 0.0772 µg/mL (≈ 0.25 µM). The “IC50 (50% cell proliferation inhibitory concentration), MDA-MB-453” value in data set [1] came out at 0.3390 µg/mL (≈ 1.1 µM).
As for `CC1Cc2nnc(-c3cccc(C(F)(F)F)c3)cc2C(OC(=O)[C@@H](N)C(C)C)C1.Cl.Cl` (stereo partly drawn) [Example 53, 5-(L-valyloxy)-7-methyl-3-(3-trifluoromethylphenyl)-5,6,7,8-tetrahydrocinnoline dihydrochloride], the melting point was in the range of 201 to 203 °C. Further, in data set [2], the “T/C value (tumor volume in treated group divided by control group)” value is recorded as 34.0%.
Take `CC1CC(=O)c2cc(-c3cccc([N+](=O)[O-])c3)nnc2C1` (stereo not drawn) [Example 20, 7-methyl-3-(3-nitrophenyl)-7,8-dihydro-6H-cinnolin-5-one]: the IC50 in the data set on Mammary tumor cell MCF-7 was 1.41 µg/mL (≈ 4.96 µM); in data set [1] it was 9.35 µg/mL (≈ 33 µM).
The matching figures for `CC(C)(O)C1Cc2nnc(-c3cccc(C(F)(F)F)c3)cc2C(O)C1` (stereo not drawn) [Example 27, 7-(2-hydroxy-2-propyl)-3-(3-trifluoromethylphenyl)-5,6,7,8-tetrahydrocinnolin-5-ol]: 0.271 µg/mL (≈ 0.769 µM) and 4.72 µg/mL (≈ 13.4 µM).
The matching figures for `Cc1cc(O)c2cc(-c3cccc(C(F)(F)F)c3)nnc2c1` [Example 70, 7-methyl-3-(3-trifluoromethylphenyl)cinnolin-5-ol]: 0.181 µg/mL (≈ 0.595 µM) and 0.551 µg/mL (≈ 1.81 µM).
On to `CC1CC(=O)C2=C(C1)NN=C(c1cccc(C(F)(F)F)c1)C2` (stereo not drawn) [Example 65, 7-methyl-3-(3-trifluoromethylphenyl)-4,6,7,8-tetrahydro-1H-cinnolin-5-one], for which the IC50 in data set [3] stood at 0.67 µg/mL (≈ 2.17 µM); in the data set with Mammary tumor cell MCF-7, 0.1 µg/mL (≈ 0.324 µM); in data set [1] it was 1.64 µg/mL (≈ 5.32 µM).
Turning to `Cc1cc(OCc2ccccc2)c2cc(-c3cccc(C(F)(F)F)c3)nnc2c1` [Example 73, 5-benzyloxy-7-methyl-3-(3-trifluoromethylphenyl)cinnoline], the figures for the IC50 (with Mammary tumor cell MCF-7; in data set [1]) were 0.399 µg/mL (≈ 1.01 µM) and 2.6 µg/mL (≈ 6.59 µM), respectively.
The matching figures for `CC(=O)Oc1cc(C)cc2nnc(-c3cccc(C(F)(F)F)c3)cc12` [Example 72, 5-acetyloxy-7-methyl-3-(3-trifluoromethylphenyl)cinnoline]: 0.138 µg/mL (≈ 0.398 µM) and 0.42 µg/mL (≈ 1.21 µM).
The molecule `CC(C)[C@H](N)C(=O)O[C@H]1C[C@H](C)Cc2nnc(-c3cccc(C(F)(F)F)c3)cc21.Cl.Cl` had a melting point of 186 to 189 °C.
Take `CC1CC(=O)c2cc(-c3cccc(C(F)(F)F)c3)nnc2C1` (stereo not drawn) [Example 66, 7-methyl-3-(3-trifluoromethylphenyl)-7,8-dihydro-6H-cinnolin-5-one]: the IC50 in data set [3] amounted to 0.28 µg/mL (≈ 0.914 µM); in the data set with Mammary tumor cell MCF-7, 0.05 µg/mL (≈ 0.163 µM); in data set [1], 1.26 µg/mL (≈ 4.11 µM). In data set [2], the “T/C value (tumor volume in treated group divided by control group)” value was 30.3%.
Regarding `CC1Cc2nnc(-c3cccc(C(F)(F)F)c3)cc2C(O)C1` (racemic) [Example 6, 7-methyl-3-(3-trifluoromethylphenyl)-5,6,7,8-tetrahydrocinnolin-5-ol], the IC50 in the data set with Mammary tumor cell MCF-7 amounted to 0.0499 µg/mL (≈ 0.162 µM); in data set [1] it was 1.47 µg/mL (≈ 4.77 µM).
Take `CC(C)[C@H](N)C(=O)O[C@@H]1C[C@H](C)Cc2nnc(-c3cccc(C(F)(F)F)c3)cc21.Cl.Cl`: the melting point was 162 to 165 °C.

For the origin of these results see patent publication US7563893B2, “3-Phenyl-cinnoline analogue and antitumor agent using the same” (Nippon Kayaku Kabushiki Kaisha, priority 2002, dated 2009).
